From PubChem BioAssay (NCI)
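Five compound concentrations were applied to cells in 96-well plates for 48 hours; endpoints were derived by simple linear interpolation of the resulting dose-response curve. The concentration for 50% growth inhibition is given as GI50. Definition used: TGI = concentration required for complete inhibition of growth.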

What was measured:
Assay in all cases: NCI-60 cell line screen, 48 h
[1] = system: NCI-H522 lung
[2] = system: MOLT-4 leukemia
[3] = system: DU-145 prostate
[4] = system: HCC-2998 colon
[5] = system: SN12C renal
[6] = system: SW-620 colon
[7] = system: SF-268 CNS
[8] = system: MDA-MB-435
[9] = system: U251 CNS
[10] = system: NCI-H23 lung
[11] = system: KM12 colon
[12] = system: 786-0 renal
[13] = system: T-47D breast
[14] = system: K-562 leukemia
[15] = system: CAKI-1 renal
[16] = system: SF-539 CNS
[17] = system: HOP-62 NSCLC
[18] = system: MDA-MB-231 breast
[19] = system: MCF7 breast
[20] = system: HL-60(TB) leukemia
[21] = system: OVCAR-3 ovarian
[22] = system: PC-3 prostate
[23] = system: OVCAR-8 ovarian
[24] = system: NCI-H226 lung
[25] = system: TK-10 renal
[26] = system: A498 renal
[27] = system: SR leukemia
[28] = system: SNB-75 CNS
[29] = system: OVCAR-4 ovarian

O=C1[C@H]2Cc3c([nH]c4ccccc34)[C@@H](c3ccc(Br)cc3)N2C(=O)CN1C1CCN(Cc2ccccc2)CC1
GI50 [1]: 4.6 µM
TGI [1]: 10.3 µM
GI50 [2]: 1.5 µM
TGI [2]: > 25 µM
GI50 [3]: 7.12 µM
TGI [3]: > 25 µM
GI50 [4]: 3.44 µM
TGI [4]: 7.94 µM
GI50 [5]: 3.17 µM
TGI [5]: 6.72 µM
GI50 [6]: 3.32 µM
TGI [6]: 7.15 µM
GI50 [7]: 3.49 µM
TGI [7]: > 25 µM
GI50 [8]: 3.5 µM
TGI [8]: 7.02 µM
GI50 [9]: 2.96 µM
TGI [9]: 6.53 µM
GI50 [10]: 3.98 µM
TGI [10]: 9.4 µM
GI50 [11]: 5.49 µM
TGI [11]: 18.1 µM
GI50 [12]: 3.46 µM
TGI [12]: 7 µM
GI50 [13]: 3.54 µM
TGI [13]: 15.7 µM
GI50 [14]: 1.06 µM
TGI [14]: 9.94 µM
GI50 [15]: 2.44 µM
TGI [15]: 7.58 µM
GI50 [16]: 3.61 µM
TGI [16]: 7.03 µM
GI50 [17]: 3.98 µM
TGI [17]: 10.8 µM
GI50 [18]: 3.44 µM
TGI [18]: 7.56 µM
GI50 [19]: 1.14 µM
TGI [19]: 4.75 µM
GI50 [20]: 2.3 µM
TGI [20]: 8.31 µM
GI50 [21]: 3.27 µM
TGI [21]: 7.23 µM
GI50 [22]: 1.67 µM
TGI [22]: 7.3 µM
GI50 [23]: 3.99 µM
TGI [23]: 9.01 µM
GI50 [24]: 5.04 µM
TGI [24]: > 25 µM
GI50 [25]: 5.79 µM
TGI [25]: 12.7 µM
GI50 [26]: 4.28 µM
TGI [26]: 8.04 µM
GI50 [27]: 1.86 µM
TGI [27]: 8.79 µM
GI50 [28]: 0.745 µM
TGI [28]: 18.3 µM
GI50 [29]: 4.24 µM
TGI [29]: 13.1 µM
